Results taken from US12220437B2, “Oncolytic virus improved in safety and anticancer effect” (BIONOXX INC., priority 2017, dated 2025).

Tests used:
NCI-H460 cells = test: Annexin V/PI staining, flow cytometry (FACS); assay type: cell-based, human
Experimental: (§1) In addition, the apoptosis and necrosis according to the combined administration of OTS-412 and GCV were confirmed by flow cytometry (FACS). Specifically, A549 and NCI-H460 cell lines were treated with GCV alone, OTS-412 alone, or a combination of OTS-412 and GCV, respectively, and the cells were subjected to Annexin V/PI staining followed by flow cytometry. At this time, the viability of cell was determined based on the facts that: both Annexin V and PI are negative in living cells; Annexin V is positive in the early stage of apoptosis, wherein the permeability of cell membrane changes; and both Annexin V and PI are positive at the end of apoptosis, wherein the nucleus is exposed by destruction of the cell membrane.

A549 cells = test: Annexin V/PI staining, flow cytometry (FACS); assay type: cell-based, human
Experimental: as §1

## Nc1nc2c(ncn2COC(CO)CO)c(=O)[nH]1 [GCV, ganciclovir]
NCI-H460 cells
  apoptosis rate: not confirmed
A549 cells
  apoptosis rate: not confirmed
